Reference: patent US20230293526A1, “METHOD FOR TREATING CANCER WITH A REVERSE TRANSCRIPTASE INHIBITOR” (PrimeFour Therapeutics, Inc., priority 2020, published 2023)

Tests used:
human LINE-1 = test: Human LINE-1 (L1) retrotransposition dual-luciferase reporter assay in HeLa cells; type: cell-based; details: Homo sapiens, HeLa, 72 h, read-out: Human LINE-1 IC50 (Human L1 activity inhibition)
Description: Representative compounds were tested for inhibition of retrotransposition activity of human LINE-1 (L1) retrotransposition reporter assay in HeLa cells according to the following procedure.
Human Cervical Adenocarcinoma Cells (HeLa) were cultured in Dulbecco's Modified Eagle's Medium (DMEM) containing 4500 mg/L glucose, L-glutamine, sodium pyruvate and sodium bicarbonate, supplemented with 10% of heat inactivated fetal bovine serum (FBS). Cells were grown at 37° C. in an atmosphere of 5% CO2. The dual luciferase-encoding plasmid pYX017 was provided by Prof Wenfeng An (Xie, et al., 2011, Nucleic Acids Res).
The reporter assay was performed in 96-well white, optical bottom plates (Thermo Fisher, 165306). 24 hours prior to transfection, HeLa cells were seeded in a density of 2,500 cells per well, in 50 μL of DMEM, 10% FBS media volume. Cells were incubated at 37° C. in an atmosphere of 5% CO2. Seeding was optimized to achieve approximately 30% cell confluency on the day of transfection. A transfection mix was prepared by combining transfection reagent FuGENE® HD (Promega, E2311) and plasmid DNA (100 ng per well) in a 3:1 ratio, in OpiMEM media (Thermo Fisher, 31985062). Next, 5 μL of the transfection mix was combined with 20 μL of DMEM, 10% FBS media, and 25 μL of this mix was added into each well of an assay plate. In each assay plate one column remained untransfected to serve as a blank luminescence signal.
Serial dilution of test compounds was performed in DMSO and transferred to medium. Next, 25 μL of media-diluted compounds series were transferred to an assay plate containing cells and transfection media. The final concentration of DMSO in treated wells was 0.2%. Serial dilutions of compounds were added to an assay plate immediately after transfection. Compounds were tested in triplicates. The assay plate was then incubated with transfection reagent and compounds at 37° C. in an atmosphere of 5% CO2 for 72 hours.
Luciferase reporter activity was quantified with the Dual-Luciferase® Reporter Assay System (Promega) following the manufacturer's manual, with a passive lysis buffer volume increased to 30 μL and lysis incubation time increased to 20 min at room temperature with gentle shaking, to ensure complete cell lysis. Luminescence was measured using a SpectraMax i3×Multi-Mode Microplate Reader, with integration times of 100 ms and 10 ms applied to measure FLuc and RLuc signals, respectively. Relative LNE-1 activity was calculated as Firefly signal/Renilla signal*10,000. In order to determine IC50 values for each compound, dose response data were fit to a logistic using non-linear regression.

cancer cell lines = test: Cancer cell proliferation activity of representative nucleosides, CellTiterGlo 72 h (Example 7, Tables 8 and 9); type: cell-based
How it was run: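 Percent viability was set against 0.1% DMSO (100%) and 10 μM staurosporine (0%), with signal from CellTiterGlo luminescence. Dose-response treatment began one day after seeding and lasted 72 h at 37° C under 5% or 10% CO2, with 0.1% final DMSO.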

## Nc1nc(=O)n([C@@H]2C=C[C@H](CO)O2)cc1F [Elvucitabine, reference compound]
Human LINE-1
  IC50: 0.092 µM
Cancer cell lines; 72 h, 5637, 72 h (Table 9)
  IC50: > 50 µM
Cancer cell lines; 72 h, CLS439, 72 h (Table 9)
  IC50: > 50 µM
Cancer cell lines; 72 h, HS729, 72 h (Table 9)
  IC50: > 50 µM
Cancer cell lines; 72 h, J82, 72 h (Table 9)
  IC50: > 50 µM
Cancer cell lines; 72 h, JAR, 72 h (Table 9)
  IC50: > 50 µM
Cancer cell lines; 72 h, MT3, 72 h (Table 9)
  IC50: > 50 µM
Cancer cell lines; 72 h, PC3, 72 h (Table 9)
  IC50: > 50 µM
Cancer cell lines; 72 h, RD, 72 h (Table 9)
  IC50: > 50 µM
Cancer cell lines; 72 h, T24, 72 h (Table 9)
  IC50: > 50 µM
Cancer cell lines; Homo sapiens, 22Rv1, 72 h, 22RV1, 72 h (Table 9)
  IC50: > 50 µM
Cancer cell lines; Homo sapiens, 786-0, 72 h, 786O, 72 h (Table 9)
  IC50: > 50 µM
Cancer cell lines; Homo sapiens, A204, 72 h, A204, 72 h (Table 9)
  IC50: 0.41 µM
Cancer cell lines; Homo sapiens, A549, 72 h, A549, 72 h (Table 9)
  IC50: > 50 µM
Cancer cell lines; Homo sapiens, A673, 72 h, A673, 72 h (Table 9)
  IC50: > 50 µM
Cancer cell lines; Homo sapiens, A2780, 72 h, A2780, 72 h (Table 9)
  IC50: > 50 µM
Cancer cell lines; Homo sapiens, A-375, 72 h, A375, 72 h (Table 9)
  IC50: > 50 µM
Cancer cell lines; Homo sapiens, A-431, 72 h, A431, 72 h (Table 9)
  IC50: 17.1 µM
Cancer cell lines; Homo sapiens, ACHN, 72 h, 72 h (Table 9)
  IC50: 1.87 µM
Cancer cell lines; Homo sapiens, ASPC1, 72 h, ASPC1, 72 h (Table 9)
  IC50: 2.46 µM
Cancer cell lines; Homo sapiens, BT-20, 72 h, BT20, 72 h (Table 9)
  IC50: > 50 µM
Cancer cell lines; Homo sapiens, BXPC-3, 72 h, BXPC3, 72 h (Table 9)
  IC50: > 50 µM
Cancer cell lines; Homo sapiens, C-33-A, 72 h, C33A, 72 h (Table 9)
  IC50: > 50 µM
Cancer cell lines; Homo sapiens, CAKI-1, 72 h, CAKI1, 72 h (Table 9)
  IC50: 2.95 µM
Cancer cell lines; Homo sapiens, COLO 205, 72 h, COLO205, 72 h (Table 9)
  IC50: > 50 µM
Cancer cell lines; Homo sapiens, COLO-678, 72 h, COLO678, 72 h (Table 9)
  IC50: > 50 µM
Cancer cell lines; Homo sapiens, Ca-Ski, 72 h, CASKI, 72 h (Table 9)
  IC50: > 50 µM
Cancer cell lines; Homo sapiens, Caco-2, 72 h, CACO2, 72 h (Table 9)
  IC50: > 50 µM
Cancer cell lines; Homo sapiens, Calu-6, 72 h, CALU6, 72 h (Table 9)
  IC50: > 50 µM
Cancer cell lines; Homo sapiens, DLD-1, 72 h, DLD1, 72 h (Table 9)
  IC50: > 50 µM
Cancer cell lines; Homo sapiens, DU-145, 72 h, DU145, 72 h (Table 9)
  IC50: 1.41 µM
Cancer cell lines; Homo sapiens, EFO-21, 72 h, EFO21, 72 h (Table 9)
  IC50: > 50 µM
Cancer cell lines; Homo sapiens, EJ-28, 72 h, EJ28, 72 h (Table 9)
  IC50: > 50 µM
Cancer cell lines; Homo sapiens, Granta-519, 72 h, GRANTA-519, 72 h (Table 9)
  IC50: 1.35 µM
Cancer cell lines; Homo sapiens, HCT-15, 72 h, HCT15, 72 h (Table 9)
  IC50: > 50 µM
Cancer cell lines; Homo sapiens, HCT-116, 72 h, HCT116, 72 h (Table 9)
  IC50: > 50 µM
Cancer cell lines; Homo sapiens, HEK293, 72 h, HEK293, 72 h (Table 9)
  IC50: > 50 µM
Cancer cell lines; Homo sapiens, HL-60, 72 h, HL-60, 72 h (Table 9)
  IC50: 3.36 µM
Cancer cell lines; Homo sapiens, HT-29, 72 h, HT29, 72 h (Table 9)
  IC50: > 50 µM
Cancer cell lines; Homo sapiens, HT-1080, 72 h, HT1080, 72 h (Table 9)
  IC50: > 50 µM
Cancer cell lines; Homo sapiens, HeLa, 72 h, 72 h (Table 9)
  IC50: > 50 µM
Cancer cell lines; Homo sapiens, HepG2, 72 h, HEPG2, 72 h (Table 9)
  IC50: 6.29 µM
Cancer cell lines; Homo sapiens, Hs-578T, 72 h, HS578T, 72 h (Table 9)
  IC50: > 50 µM
Cancer cell lines; Homo sapiens, IGROV-1, 72 h, IGROV1, 72 h (Table 9)
  IC50: > 50 µM
Cancer cell lines; Homo sapiens, IMR-90, 72 h, IMR90, 72 h (Table 9)
  IC50: > 50 µM
Cancer cell lines; Homo sapiens, JEG-3, 72 h, JEG3, 72 h (Table 9)
  IC50: > 50 µM
Cancer cell lines; Homo sapiens, JIMT-1, 72 h, JIMT1, 72 h (Table 9)
  IC50: 8.56 µM
Cancer cell lines; Homo sapiens, K562, 72 h, K-562, 72 h (Table 9)
  IC50: > 50 µM
Cancer cell lines; Homo sapiens, Kasumi 1, 72 h, KASUMI-1, 72 h (Table 9)
  IC50: 18.7 µM
Cancer cell lines; Homo sapiens, L-363, 72 h, L-363, 72 h (Table 9)
  IC50: > 50 µM
Cancer cell lines; Homo sapiens, LoVo, 72 h, 72 h (Table 9)
  IC50: > 50 µM
Cancer cell lines; Homo sapiens, MCF7, 72 h, MCF7, 72 h (Table 9)
  IC50: > 50 µM
Cancer cell lines; Homo sapiens, MDA-MB-231, 72 h, MDAMB231, 72 h (Table 9)
  IC50: 5.38 µM
Cancer cell lines; Homo sapiens, MDA-MB-435, 72 h, MDAMB435, 72 h (Table 9)
  IC50: > 50 µM
Cancer cell lines; Homo sapiens, MDA-MB-436, 72 h, MDAMB436, 72 h (Table 9)
  IC50: > 50 µM
Cancer cell lines; Homo sapiens, MDA-MB-468, 72 h, MDAMB468, 72 h (Table 9)
  IC50: > 50 µM
Cancer cell lines; Homo sapiens, MG-63, 72 h, MG63, 72 h (Table 9)
  IC50: > 50 µM
Cancer cell lines; Homo sapiens, MHH-ES-1, 72 h, MHHES1, 72 h (Table 9)
  IC50: 1.96 µM
Cancer cell lines; Homo sapiens, MIA PaCa-2, 72 h, MIAPACA2, 72 h (Table 9)
  IC50: > 50 µM
Cancer cell lines; Homo sapiens, MINO, 72 h, 72 h (Table 9)
  IC50: 4.93 µM
Cancer cell lines; Homo sapiens, MV4-11, 72 h, MV4-11, 72 h (Table 9)
  IC50: > 50 µM
Cancer cell lines; Homo sapiens, NCI-H23, 72 h, NCI-H23, 72 h (Table 9)
  IC50: > 50 µM
Cancer cell lines; Homo sapiens, NCI-H82, 72 h, NCIH82, 72 h (Table 9)
  IC50: > 50 µM
Cancer cell lines; Homo sapiens, NCI-H292, 72 h, NCIH292, 72 h (Table 9)
  IC50: 4.68 µM
Cancer cell lines; Homo sapiens, NCI-H460, 72 h, NCIH460, 72 h (Table 9)
  IC50: > 50 µM
Cancer cell lines; Homo sapiens, OVCAR-3, 72 h, OVCAR3, 72 h (Table 9)
  IC50: > 50 µM
Cancer cell lines; Homo sapiens, OVCAR-4, 72 h, OVCAR4, 72 h (Table 9)
  IC50: > 50 µM
Cancer cell lines; Homo sapiens, PANC-1, 72 h, PANC1, 72 h (Table 9)
  IC50: > 50 µM
Cancer cell lines; Homo sapiens, PLC-PRF-5, 72 h, PLCPRF5, 72 h (Table 9)
  IC50: > 50 µM
Cancer cell lines; Homo sapiens, Panc1005, 72 h, PANC1005, 72 h (Table 9)
  IC50: > 50 µM
Cancer cell lines; Homo sapiens, Ramos, 72 h, 72 h (Table 9)
  IC50: 1.96 µM
Cancer cell lines; Homo sapiens, SAOS-2, 72 h, SAOS2, 72 h (Table 9)
  IC50: > 50 µM
Cancer cell lines; Homo sapiens, SF-268, 72 h, SF268, 72 h (Table 9)
  IC50: > 50 µM
Cancer cell lines; Homo sapiens, SF-295, 72 h, SF295, 72 h (Table 9)
  IC50: > 50 µM
Cancer cell lines; Homo sapiens, SK-BR-3, 72 h, SKBR3, 72 h (Table 9)
  IC50: 3.47 µM
Cancer cell lines; Homo sapiens, SK-HEP1, 72 h, SKHEP1, 72 h (Table 9)
  IC50: > 50 µM
Cancer cell lines; Homo sapiens, SK-LMS-1, 72 h, SKLMS1, 72 h (Table 9)
  IC50: > 50 µM
Cancer cell lines; Homo sapiens, SK-MEL-5, 72 h, SKMEL5, 72 h (Table 9)
  IC50: > 50 µM
Cancer cell lines; Homo sapiens, SK-MEL-28, 72 h, SKMEL28, 72 h (Table 9)
  IC50: > 50 µM
Cancer cell lines; Homo sapiens, SK-N-AS, 72 h, SKNAS, 72 h (Table 9)
  IC50: > 50 µM
Cancer cell lines; Homo sapiens, SK-N-SH, 72 h, SKNSH, 72 h (Table 9)
  IC50: 6.99 µM
Cancer cell lines; Homo sapiens, SK-OV-3, 72 h, SKOV3, 72 h (Table 9)
  IC50: > 50 µM
Cancer cell lines; Homo sapiens, SNB-75, 72 h, SNB75, 72 h (Table 9)
  IC50: > 50 µM
Cancer cell lines; Homo sapiens, SU-DHL10, 72 h, SU-DHL-10, 72 h (Table 9)
  IC50: > 50 µM
Cancer cell lines; Homo sapiens, SU-DHL-6, 72 h, SU-DHL-6, 72 h (Table 9)
  IC50: 4.2 µM
Cancer cell lines; Homo sapiens, SW-620, 72 h, SW620, 72 h (Table 9)
  IC50: > 50 µM
Cancer cell lines; Homo sapiens, TE-671, 72 h, TE671, 72 h (Table 9)
  IC50: > 50 µM
Cancer cell lines; Homo sapiens, THP-1, 72 h, THP-1, 72 h (Table 9)
  IC50: 2.04 µM
Cancer cell lines; Homo sapiens, U2OS, 72 h, 72 h (Table 9)
  IC50: > 50 µM
Cancer cell lines; Homo sapiens, U-87 MG, 72 h, U87MG, 72 h (Table 9)
  IC50: 18.5 µM
Cancer cell lines; Homo sapiens, UMUC3, 72 h, UMUC3, 72 h (Table 9)
  IC50: > 50 µM
Cancer cell lines; Homo sapiens, UO-31, 72 h, UO31, 72 h (Table 9)
  IC50: 11.2 µM
Cancer cell lines; Homo sapiens, WSU-NHL, 72 h, 72 h (Table 9)
  IC50: 2.46 µM
Cancer cell lines; NCI-H358M, 72 h, NCIH358M, 72 h (Table 9)
  IC50: 4.54 µM
Cancer cell lines; PBMC, 72 h, 72 h (Table 9)
  IC50: > 50 µM
Cancer cell lines; RD-ES, 72 h, RDES, 72 h (Table 9)
  IC50: > 50 µM
